Numbers after ± are expanded uncertainties.
Conditions: Liquid, Ebulliometric method (Recirculating still)

Row | vapor or sublimation pressure (354.25 K) | vapor or sublimation pressure (337.85 K) | SMILES
1 | 101.32 ± 1 kPa | – | CC#N [acetonitrile]
2 | – | 101.32 ± 1 kPa | CO [methanol]
